According to patent US4782072A, “Thiadiazole derivative” (Reckitt & Colman Products Limited, priority 1986, dated 1988):

Key:
[1] = metrazol antagonism test (MMS), mouse; format: in vivo; conditions: read-out: ED50 (limits) MOUSE MMS
Procedure: (§1) The pharmacological activity of the compound of the invention has been determined according to the following procedures. Its anticonvulsant activity was determined in the metrazol antagonism test in both mice and rats (MMS) (Soaje-Echaque E; Lim RKS, J Pharmac Exp Ther 1962, 138, 224; Desmedt LKC; Niemegeers CJE; Lewi PJ; Janssen PAJ, Arzneim-Forsch (Drug Res), 1976, 26, 1592) and the electroshock test (MES) (Perry JK; Tower DB; Woodbury DM; Walter RD, "Experimental Models of Epilepsy", editor Purpura DP; Raven Press: New York, 1972, 434).

in vivo = conditions: for TD50 ip at time of peak effect / TD50 po at 1 hour: rotarod; for TD50 ip at time of peak effect: at time of peak anticonvulsant effect; for TD50 po at 1 hour: dose at which 50% of trained animals fall off the rotarod
Procedure: An assessment of the neurotoxicity of the compound was carried out in mice using the rotarod test (Collier, HOJ; Fieller, EC; Hall, RA, Analyst, 1949, 74, 592).
^a Dose at which 50% of trained animals fall off the rotarod.
^b Protective index is calculated by dividing the TD50 (ip at
time of peak anticonvulsant effect) by the ED50 under the same

[2] = electroshock test (MES), rat; format: in vivo; conditions: read-out: ED50 (limits) RAT MES
Procedure: as §1

[3] = metrazol antagonism test (MMS), rat; format: in vivo; conditions: read-out: ED50 (limits) RAT MMS
Procedure: as §1

[4] = anticonvulsant tests (MES and MMS), rat and mouse, summary; format: in vivo; conditions: for anticonvulsant activity: electrically and chemically induced seizures
Procedure: as §1

[5] = electroshock test (MES), mouse; format: in vivo
Procedure: as §1

[6] = mouse, in vivo, ip, protective index (PI)
[7] = ip, mouse, MES, i.p., at time of peak effect, read-out: ED50 (limits) MES at time of peak effect
[8] = mouse, MES, oral, t=1 hour, read-out: ED50 (limits) MOUSE MES

| SMILES | ED50 ([1]; mouse, MMS, oral, t=1 hour) | selectivity ratio (in vivo; [6]) | TD50 ip at time of peak effect (in vivo; ip) | TD50 po at 1 hour (in vivo) | ED50 ([2]; rat, MES, oral, t=1 hour) | ED50 ([3]; rat, MMS, oral, t=1 hour) | ED50 [5, 7] | Time of peak effect ([5]; mouse, MES, i.p.) | ED50 [5, 8] | other results |
| --- | --- | --- | --- | --- | --- | --- | --- | --- | --- | --- |
| NCc1nnc(-c2ccccc2-c2ccccc2)s1 [Example, 2-Aminomethyl-5-(2-biphenylyl)-1,3,4-thiadiazole] | 20 mg/kg | 6.5 | 45(23-68) mg/kg | 318(230-471) mg/kg | 10 mg/kg | 9 mg/kg | 7 mg/kg | 10 min | 22 mg/kg | rate of absorption ([4]; inferred from time of peak effect, ip and oral, in words): very rapid rate of absorption; time of peak effect by both methods of administration ([4]; intraperitoneal and oral routes, after dosing): ten and twenty; anticonvulsant activity ([4]; rat and mouse, in words, listed as compound of Formula 1): potent anticonvulsant activity; anticonvulsant activity ([4]; rat and mouse, in words, listed as the compound): potent anticonvulsant, blocking both electrically and chemically induced seizures; effectiveness by intraperitoneal and oral routes ([4]; rat and mouse, in words): effective by both the intraperitoneal and oral routes; potency relative to established anticonvulsant drugs ([4]; rat and mouse, in words): comparable with established anticonvulsant drugs |
| NC(=O)N1c2ccccc2C=Cc2ccccc21 [carbamazepine] | 11 mg/kg | 11 | 67(29-108) mg/kg | 166(104-282) mg/kg | 4 mg/kg | 3 mg/kg | 6 mg/kg | 20 min | 20 mg/kg | protective index (PI) (in vivo; in vivo, ip): 11.1 |
| CCC1(c2ccccc2)C(=O)NC(=O)NC1=O [phenobarbital] |  |  | 86(54-140) mg/kg | 68(52-92) mg/kg |  |  |  | 30 min |  | ED50 ([1]; Mus musculus, po, 1 h): 4 mg/kg; ED50 ([2]; Rattus norvegicus, po, 1 h): 9 mg/kg; ED50 ([3]; Rattus norvegicus, po, 1 h): 4 mg/kg; ED50 ([5]; Mus musculus, ip, read-out: ED50 (limits) MES at time of peak effect): 18 mg/kg; ED50 ([5]; Mus musculus, po, 1 h, read-out: ED50 (limits) MOUSE MES): 12 mg/kg |
| O=C1NC(=O)C(c2ccccc2)(c2ccccc2)N1 [phenytoin] | 8 mg/kg |  | 56(27-74) mg/kg | 216(154-239) mg/kg | 14 mg/kg | 12 mg/kg | 8 mg/kg | 60 min | 8 mg/kg | selectivity ratio (in vivo; in vivo, ip): 7 |
